Where two headings read alike, the source gives them in different places.
Assays:
[1] = tested on: lipid peroxidation in rat hepatocyte; test: Inhibitory action on lipid peroxidation (rat hepatocyte, TBA color formation, absorbance at 530 nm); assay type: biochemical; settings: 37° C., 1 hour; for Inhibition ratio (at Final Concentration of Tested Compound) 10^-4 M: final concentration 10^-4 M, 100 µM; for Inhibition ratio (at Final Concentration of Tested Compound) 10^-5 M: final concentration 10^-5 M, 10 µM
Procedure: A hepatocyte was isolated from rat according to the method of Ui et al (Hiroshi Oka and Tadao Ui: "Isolated Cells--Experimental and Application",page 91). The determination of lipid peroxidation was performed using a died hepatocyte which had been frozen at -85° C. and stored at the temperature and which was melted when the experimental was done. […] The centrifugal tube was shaken at 37° C. for 1 hour for performing a reaction, and then placed into an ice-water bath to terminate the reaction. […] The centrifugal tube was taken out of the ice-water bath and placed in a water bath (kept at 95°-98° C.). The content of the tube was heated in the bath for 1 hour for developing color-formation. After the heating was complete, the content of the tube was cooled and subjected to centrifugal separation. The inhibitory action on lipid peroxidation of the sample was determined by measuring absorbance at 530 nm. The determined inhibitory action is expressed inhibition ratio by percent (%) calculated by the following equation: [formula] In Table 3, the number of the tested compound corresponds to the identical number set forth in Tables 1 and 2 for identifying the compounds of the invention.

[2] = tested on: acute liver disease caused by CCl4 (Wister-strain rat); test: Preventive action on deviation of GOT value and GPT value in vivo using model of acute liver disease caused by CCl4; settings: rat, 30 mg/kg, 3 hour before oral CCl4
Procedure: CCl4 in olive oil (concentration: 50%) was orally administered to a Wister-strain rat (body weight: 170-180 g) fasted for 24 hrs., at a dose of 1 ml/kg, to cause acute liver disease. […] For control group, 1.0% methylcellulose (MC) was administered in place of the piperazine derivative. For normal group, a simple olive oil was administered in place of the CCl4 -containing olive oil. For the administration, the piperazine derivative was employed in the form of a dispersion in aqueous MC solution (concentration: 1.0%). At 24 hours after the administration of CCl4, the rat was abdominally sectioned under ether anesthesia. From the abrominal large vein, a blood was collected. The collected blood was subjected to centrifugal separation at 3,000 r.p.m. for 10 min to obtain its plasma. […] The results are set forth in Table 4 in terms of a ratio (%) of suppression (prevention) of GOT or GPT. In Table 4, "***" means 90-100%, "**" means 60-90%, and "*" means 30-60%. The ratio of suppression is calculated according to the following equation. [formula]

[3] = plasma GOT at 24 hours after CCl4, read-out: ratio (%) of suppression (prevention) of GOT
[4] = plasma GPT at 24 hours after CCl4, read-out: ratio (%) of suppression (prevention) of GPT

Compound | Inhibition ratio (at Final Concentration of Tested Compound) 10^-4 M [1] | inhibition in vivo at 30 mg/kg [2, 3] | inhibition in vivo at 30 mg/kg [2, 4] | Inhibition ratio (at Final Concentration of Tested Compound) 10^-5 M [1] | Inhibition ratio (at Final Concentration of Tested Compound) 10^-4 M ([1]; 60 min)
CSC(=S)N1CCN(Cc2cc(O)c(O)c(O)c2)CC1 [Compound 40, Methyl 4-(3,4,5-trihydroxybenzyl)-1-piperazinecarbodithioate] | 92.6% |  |  |  | 
COc1ccc(CN2CCN(C(=S)SC)CC2)c(O)c1OC [Compound 35, Methyl 4-(3,4-dimethoxy-2-hydroxybenzyl)-1-piperazinecarbodithioate] |  | 60 to 90% | 60 to 90% |  | 
CSC(=S)N1CCN(Cc2ccccc2)CC1 [Compound 1] |  | 30 to 60% | 30 to 60% |  | 
COc1ccc(C(=O)CN2CCN(C(=S)SC)CC2)c(OC)c1OC [Compound 71, Methyl 4-{2-(2,3,4-trimethoxyphenyl)-2-oxo}ethyl-1-piperazinecarbodithioate] |  | 60 to 90% | 30 to 60% |  | 
CSC(=S)N1CCN(Cc2cc(OC(C)=O)ccc2O)CC1 [Compound 21, Methyl 4-(5-acetoxy-2-hydroxybenzyl)-1-piperazinecarbodithioate] |  | 60 to 90% | 60 to 90% |  | 
COc1ccc(CN2CCN(C(=S)SC)CC2)cc1OC [Compound 31, Methyl 4-(3,4-dimethoxybenzyl)-1-piperazinecarbodithioate] |  | 60 to 90% | 30 to 60% |  | 
COC1=C(OC)C(=O)C(CN2CCN(C(=S)SC)CC2)=C(C)C1=O [Compound 118, Methyl 4-(5,6-dimethoxy-3-methyl-1,4-benzoquinonylmethyl)-1-piperazinecarbodithioate] |  | 60 to 90% | 30 to 60% |  | 
COc1ccc(CCN2CCN(C(=S)SC)CC2)c(OC)c1OC [Compound 67, Methyl 4-{2-(2,3,4-trimethoxyphenyl)ethyl}-1-piperazinecarbodithioate] |  | 30 to 60% | 30 to 60% |  | 
CSC(=S)N1CCN(Cc2c(C)c(O)c(C)c(C)c2O)CC1 [Compound 46, Methyl 4-[(2,5-dihydroxy-3,4,6-trimethyl)benzyl]-1-piperazinecarbodithioate] |  | 90 to 100% | 90 to 100% |  | 
COc1ccc(C(=O)N2CCN(C(=S)SC)CC2)c(OC)c1OC [Compound 56, Methyl 4-(2,3,4-trimethoxybenzoyl)-1-piperazinecarbodithioate] |  | 90 to 100% | 90 to 100% |  | 
CSC(=S)N1CCN(CCc2ccc(O)c(O)c2O)CC1 [Compound 68, Methyl 4-{2-(2,3,4-trihydroxyphenyl)ethyl}-1-piperazinecarbodithioate] |  | 60 to 90% | 60 to 90% |  | 
COc1ccc(CN2CCN(C(=S)SC)CC2)cc1 [Compound 7, Methyl 4-(4-methoxybenzyl)-1-piperazinecarbodithioate] |  | 60 to 90% | 30 to 60% |  | 
CSC(=S)N1CCN(Cc2c(O)c(O)cc3ccc(=O)oc23)CC1 [Compound 106, Methyl 4-(6,7-dihydroxycumarin-8-yl)methyl-1-piperazinecarbodithioate] | 89.0% |  |  | 88.1% | 
CSC(=S)N1CCN(CC(=O)c2ccc(O)c(O)c2)CC1 [Compound 72, Methyl 4-{2-(3,4-dihydroxyphenyl)-2-oxo}ethyl-1-piperazinecarbodithioate] | 74.8% |  |  | 58.2% | 
COc1cccc(CN2CCN(C(=S)SC)CC2)c1 [Compound 6, Methyl 4-(3-methoxybenzyl)-1-piperazinecarbodithioate] |  | 90 to 100% | 90 to 100% |  | 
COc1cc(CN2CCN(C(=S)S)CC2)cc(OC)c1OC [Compound 89, Sodium 4-(3,4-5-trimethoxybenzyl)-1-piperazinecarbodithioate] |  |  |  |  | 90.2%
CSC(=S)N1CCN(Cc2cccc(O)c2O)CC1 [Compound 15, Methyl 4-(2,3-dihydroxybenzyl)-1-piperazinecarbodithioate] |  | 90 to 100% | 90 to 100% |  | 
CSC(=S)N1CCN(Cc2cc(OC(C)=O)c(OC(C)=O)c(OC(C)=O)c2)CC1 [Compound 42, Methyl 4-(3,4,5-triacetoxybenzyl)-1-piperazinecarbodithioate] | 71.6% |  |  | 71.6% | 
CSC(=S)N1CCN(Cc2ccccc2C)CC1 [Compound 3, Methyl 4-(2-methylbenzyl)-1-piperazinecarbodithioate] |  | 60 to 90% | 60 to 90% |  | 
COc1cc(O)c(CN2CCN(C(=S)SC)CC2)c(OC)c1 [Compound 37, Methyl 4-[(4,6-dimethoxy-2-hydroxy)benzyl]-1-piperazinecarbodithioate] |  | 60 to 90% | 60 to 90% |  | 
COc1ccc(O)c(CN2CCN(C(=S)SC)CC2)c1 [Compound 20, Methyl 4-(2-hydroxy-5-methoxybenzyl)-1-piperazinecarbodithioate] |  | 60 to 90% | 60 to 90% |  | 
COc1ccc(CN2CCN(C(=S)S)CC2)c(OC)c1OC [Compound 93, 4-(2,3,4-Trimethoxybenzyl)-1-piperazinecarbodithioic acid] |  | 90 to 100% | 90 to 100% |  | 
CSC(=S)N1CCN(Cc2ccccc2Cl)CC1 [Compound 2, Methyl 4-(2-chlorobenzyl)-1-piperazinecarbodithioate] |  | 30 to 60% |  |  | 
CSC(=S)N1CCN(Cc2ccccc2SC)CC1 [Compound 9, Methyl 4-(2-methylthiobenzyl)-1-piperazinecarbodithioate] |  | 60 to 90% | 60 to 90% |  | 
CSC(=S)N1CCN(Cc2ccccc2[N+](=O)[O-])CC1 [Compound 10, Methyl 4-(2-nitrobenzyl)-1-piperazinecarbodithioate] |  | 60 to 90% | 30 to 60% |  | 
Oc1ccc(CN2CCN(C(=S)SCc3ccccc3)CC2)c(O)c1O [Compound 100, Benzyl 4-(2,3,4-trihydroxybenzyl)-1-piperazinecarbodithioate] |  |  | 30 to 60% |  | 
COc1cccc(CN2CCN(C(=S)SC)CC2)c1O [Compound 18, Methyl 4-(2-hydroxy-3-methoxybenzyl)-1-piperazinecarbodithioate] |  | 60 to 90% | 60 to 90% |  | 
CSC(=S)N1CCN(CC2=CC(=O)C=CC2=O)CC1 [Compound 110, Methyl 4-(1,4-benzoquinonylmethyl)-1-piperazinecarbodithioate] |  | 90 to 100% | 90 to 100% |  | 
COc1cc(CN2CCN(C(=S)S)CC2)cc(OC)c1OC [Compound 108, 4-(3,4,5-Trimethoxybenzyl)-1-piperazinecarbodithioic acid] |  |  |  | 39.2% | 72.6%
CSC(=S)N1CCN(Cc2ccc(OC(C)=O)c(OC(C)=O)c2OC(C)=O)CC1 [Compound 34, Methyl 4-(2,3,4-triacetoxybenzyl)-1-piperazinecarbodithioate] |  |  | 30 to 60% |  | 
